This note sets out measurements from paper PMC12250170, “Synthesis of Novel Podophyllotoxin–Benzothiazole Congeners and Their Biological Evaluation as Anticancer Agents” (International Journal of Molecular Sciences, 2025).

Read-outs that look alike come from different tables or passages of the source.

The test system of assay [1] is HeLa (cervix cancer) cells. In words: In vitro cytotoxicity, crystal violet assay, HeLa. Conditions: Homo sapiens, HeLa, 48 h, HeLa, crystal violet assay, 48 h; read-out: IC50 ± SD, HeLa. The assay is classed as cell-based, human. The method, then: (§1) The synthesized compounds were tested and evaluated for their cytotoxicity using an in vitro cytotoxicity assay. We studied five cancer cell lines and one non-cancerous cell line. The cells were purchased from the American Type Culture Collection (ATCC), United States, including HeLa (cervical), LoVo (colorectal), MCF-7 (breast), SKOV3 (ovarian), B16F10 (murine melanoma), and HaCaT (human keratinocyte). Dulbecco’s modified Eagle’s medium (containing 10% FBS) was used to culture HeLa, MCF-7, B16F10, and HaCaT cells, while RPMI 1640 medium (containing 10% FBS) was used for SKOV3 and LoVo cells. The cells were cultured in 25 cm^2 culture flasks (Corning, Corning, NY, USA) in a humidified atmosphere of 5% CO2 at 37 °C and passaged every three days with standard Trypsin-EDTA solution (Gibco, Thermo Fisher Scientific, Waltham, MA, USA). All compounds were initially prepared as stock solutions at a concentration of 10 mM (in DMSO). Serial dilutions were performed in the indicated medium to achieve the required concentration gradient of compounds (20 µM, 10 µM, 5 µM, 2.5 µM, 1.25 µM, 0.625 µM, 0.312 µM). The maximum percentage of DMSO used in the compound solutions was 0.1%, based on the procedure previously described by our group.
(§2) This assay was performed in reference to the method already described. In brief, the cell lines (HeLa, MCF-7, and SKOV-3) were seeded in the indicated medium in a 96-well culture plate (Nest Biotechnology, Wuxi, China) at a density of 1 × 10^4 cells per well (100 µL) in quadruplicates and then incubated at 37 °C in a 5% CO2 atmosphere. After 24 h of incubation, 100 µL aliquots of the compounds in medium at increasing concentrations were added to each well, and the cells were further incubated for 48 h. After the incubation period, the cells were washed with PBS twice, and then with 70% ethanol, followed by staining with 0.05% crystal violet solution in water (ChemPur, Piekary Slaskie, Poland) for 20 min. The excess crystal violet was washed out with distilled water several times. The stained cells then solubilized in 1% Triton™ X-100 Surfact-Amps (POCH SA, Gliwice, Poland) or 10% PBS. The absorbance of each well was measured using Fluostar plate reader at […].
(§3) Data analysis was carried out using GraphPad Prism 5.0.3. Calculations were performed using MS-Excel version 2021. The cytotoxic effect was expressed as the relative viability of treated cells (percentage growth control) and was calculated as follows: % relative viability = Ae−Ab/Ac−Ab×100% , where Ae is experimental absorbance/fluorescence intensity, Ac is the absorbance/ fluorescence intensity of growth control (only cells with medium), and Ab is the absorbance/fluorescence intensity of a blank (only medium). The IC50 values were obtained by using the sigmoidal dose–response function in GraphPad Prism. The results were expressed as mean ± standard deviation (SD).

In assay [2] the test system is HeLa cells. Description: Cell cycle analysis by flow cytometry (propidium iodide). Format: cell-based, human. As to conditions: higher concentrations, after 48 h of exposure. On the procedure: To determine the possible mechanisms of compounds 7 and 11 in inhibiting the proliferation of cancer cells, cell cycle analysis was performed with the flow cytometry method, as shown in Figure 3. Compound 7 was previously reported to inhibit proliferation of HaCaT cells via cell cycle arrest in G2/M [18]. As a reference, HeLa cells were treated with the indicated concentrations of compounds 7 and 11 for 24 h and 48 h, and the cell cycle phases distribution of treated cells was determined with the propidium iodide (PI) method, as previously described. The effects of novel podophyllotoxin derivatives on cell cycle phase distribution were evaluated in cells exposed to these compounds for 24 h or 48 h. Three compounds were compared: podophyllotoxin 1, KL-3 derivative 7, and its analog lacking the ester group 11.
For cell cycle analysis, HeLa cells were treated for 24 or 48 h with compounds 7 and 11 at concentrations of 5 µM and 10 µM. After the incubation period, the cells were fixed in a freezing medium (ice-cold 70% ethanol solution in PBS) and stored at −20 °C. The cell suspension was then centrifuged, washed with PBS, and resuspended in PBS containing 200 µg of DNase-free RNase A (Sigma) for 20 min at room temperature. Propidium iodide (Sigma) was added to a final concentration of 5 µg/mL, and the cells were stained for at least 2 h at 4 °C. The analysis was performed using a FACSCalibur flow cytometer (Becton Dickinson, San Diego, CA, USA) and analyzed with CellQuest software, v.3.3.

The test system of assay [3] is cancer cell lines (MCF-7, SKOV-3, B16F10, LOVO, and HeLa) and HaCaT. In words: In vitro cytotoxicity assay, results summarised over the cell line panel. The assay is classed as cell-based. On the procedure: The cytotoxicity properties of semi-synthesized compounds 7–15 was evaluated against five types of cancer cell lines including, human: HeLa (cervix cancer), LoVo (colorectal cancer), MCF-7 (breast cancer), SKOV-3 (ovarian cancer), and murine: B16F10 (malignant melanoma). Thus, various human tumor cell lines representing major types of malignant cancers were included in the study protocol. Non-tumorigenic HaCaT cells were used as a representative model of normal (non-cancerous) cells. The crystal violet assay and PrestoBlue assay were used to evaluate the cytotoxic/cytostatic effect. We also included the cytotoxicity data of podophyllotoxin and etoposide as reference values.
as §1, §2
(§4) The PrestoBlue assay was performed according to the method previously reported by Strus et al.. The cells (LoVo and B16F10) were seeded in the indicated medium in a 96-well culture plate (Nest Biotechnology) at a density of 1 × 10^4 cells per well (100 µL) and incubated at 37 °C in a 5% CO2 atmosphere. After 24 h of incubation, 100 µL aliquots of the compounds in medium were added to each well, and the cells were further incubated for 48 h. After 48 h, the old medium was removed, and 100 µL of fresh medium was added. Then, 10 µL of PrestoBlue solution (Thermo Fisher Scientific, Waltham, MA, USA) was added to each well and incubated for 60 min. The fluorescence intensity was measured with excitation at 544 nm and emission at 615 nm using a Fluorstar microplate reader (BMG Labtech, Ortenberg, Germany). The results were expressed as a percentage of the intensity relative to that of control cells (non-treated cells).
Data analysis was carried out using GraphPad Prism 5.0.3. Calculations were performed using MS-Excel version 2021. […]

In assay [4] the test system is B16F10 (murine melanoma) cells. In words: In vitro cytotoxicity, PrestoBlue assay, B16F10. Conditions: Mus musculus, B16-F10, 48 h, read-out: IC50 ± SD, B16F10. The assay is classed as cell-based. The method, then:
as §1, §4, §3

Assay [5] relates to HaCaT (human keratinocyte) cells. In words: In vitro cytotoxicity, PrestoBlue assay, HaCaT (non-tumorigenic). Format: cell-based. Conditions: Homo sapiens, 48 h, read-out: IC50 ± SD, HaCaT.
For assay [6], the system named is LoVo (colorectal cancer) cells. Description: In vitro cytotoxicity, PrestoBlue assay, LoVo. The assay is classed as cell-based, human. Conditions: Homo sapiens, 48 h, read-out: IC50 ± SD, LoVo. The method, then:
as §1, §4, §3

Assay [7] concerns MCF-7 (breast cancer) cells. In words: In vitro cytotoxicity, crystal violet assay, MCF-7. Format: cell-based, human. As to conditions: Homo sapiens, MCF7, 48 h, MCF-7, crystal violet assay, read-out: IC50 ± SD, MCF-7. On the procedure:
as §1, §2, §3

Assay [8] deals with SKOV-3 (ovarian cancer) cells. Description: In vitro cytotoxicity, crystal violet assay, SKOV-3. The assay is classed as cell-based, human. Conditions: Homo sapiens, SK-OV-3, 48 h, SKOV-3, crystal violet assay, read-out: IC50 ± SD, SKOV-3. On the procedure: as §1, §2, §3

Take `COc1cc([C@H]2CC(c3nc4ccccc4s3)=Cc3cc4c(cc32)OCO4)cc(OC)c1OC` [Compound 11]: the IC50 is 1540 ± 240 nM in assay [1]; 680 to 2880 nM in assay [3] (MCF-7, SKOV-3, B16F10, LOVO, HeLa, read-out: IC50, range over all tested cancer cell lines); 1540 to 2880 nM in assay [3] (read-out: IC50, range over all tested cell lines); 1930 ± 250 nM in assay [4]; 1900 ± 140 nM in assay [5]; 2880 ± 870 nM in assay [6]. For the same compound, the IC50 in assay [7] was determined as 1980 ± 490 nM; in assay [8], 1790 ± 280 nM. In assay [2], the “Cells arrested in the G2/M phase” value is “approximately 43%”.
